Results: ChEMBL document CHEMBL1148780, “Design and evaluation of naphthol- and carbazole-containing fluorescent sigma ligands as potential probes for receptor binding studies” (J Med Chem, 2007)

Assays:
[1] = Displacement of [3H]DTG from sigma2 receptor in Wistar rat liver membrane in presence of 1 uM […]; format: cell membranes
[2] = biological target: T1, 3-beta-hydroxysteroid-Delta(8),Delta(7)-isomerase (Cavia porcellus, UniProt Q60490); assay: Displacement of [3H]emopamil from Delta-(8)-Delta-(7) sterol isomerase in guinea pig liver membrane; format: cell membranes
T1 sequence (Q60490 whole entry): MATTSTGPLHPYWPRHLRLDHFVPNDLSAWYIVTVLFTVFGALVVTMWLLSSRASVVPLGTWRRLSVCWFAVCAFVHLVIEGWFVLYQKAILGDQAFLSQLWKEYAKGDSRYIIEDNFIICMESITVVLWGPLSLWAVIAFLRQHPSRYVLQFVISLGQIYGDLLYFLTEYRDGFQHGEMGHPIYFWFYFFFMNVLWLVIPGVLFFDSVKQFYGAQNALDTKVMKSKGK

[3] = biological target: Sigma non-opioid intracellular receptor 1 (Cavia porcellus, UniProt Q60492); assay: Displacement of [3H]pentazocine from Sigma1 receptor in guinea pig brain membrane; format: cell membranes
[4] = Selectivity for sigma1 receptor over sigma2 receptor
[5] = (§1) Binding affinity to sigma2 receptor in Wistar rat liver membrane; format: cell membranes
Rattus norvegicus = organism: Rattus norvegicus; assay: as §1; format: cell membranes

Sequence of Sigma non-opioid intracellular receptor 1 (Q60492 whole entry): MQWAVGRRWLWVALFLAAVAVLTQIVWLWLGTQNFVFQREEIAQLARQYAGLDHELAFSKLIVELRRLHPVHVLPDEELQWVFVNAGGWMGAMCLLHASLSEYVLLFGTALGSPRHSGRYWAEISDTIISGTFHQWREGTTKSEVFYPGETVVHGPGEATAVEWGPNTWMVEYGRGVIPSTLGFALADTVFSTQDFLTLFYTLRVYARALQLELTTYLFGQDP

| Ki [1] [nM] | Ki [2] [nM] | Ki [3] [nM] | Ratio Ki [4] | Kd [5] [nM] | Bmax (Rattus norvegicus) [pmol/mg] | Compound |
| --- | --- | --- | --- | --- | --- | --- |
| 9.24 | 4.51 |  |  |  |  | COc1cccc2c(CCCN3CCN(C4CCCCC4)CC3)cccc12 |
| 672 | 4.12 | 115 | 6 |  |  | COc1ccc2cccc(CCCN3CCCC(C)(C)C3)c2c1 |
|  |  |  | 680 |  |  | COc1ccc2c(CCCN3CCCC(C)(C)C3)cccc2c1 |
| 26.4 | 21.3 | 6.78 | 4 | 21.3 | 0.47 | Oc1ccc2c(CCCN3CCN(C4CCCCC4)CC3)cccc2c1 |
| 520 | 270 | 175 | 3 |  |  | CC1(C)CCCN(CCCCn2c3ccccc3c3ccccc32)C1 |
| 643 | 12.8 | 44.9 | 14 |  |  | COc1cccc2c(CCCN3CCCC(C)(C)C3)cccc12 |
| 12.6 | 79.9 | 3450 | 0.004 |  |  | c1ccc2c(c1)c1ccccc1n2CCCN1CCN(C2CCCCC2)CC1 |
| 4480 | 345 | 2020 | 2 |  |  | CC1(C)CCCN(CCCn2c3ccccc3c3ccccc32)C1 |
|  | 19.8 |  |  |  |  | CC(C(O)c1ccc(O)cc1)N1CCC(Cc2ccccc2)CC1 (racemic) [IFENPRODIL] |
| 412 | 30 | 733 | 0.6 |  |  | CC1(C)CCCN(CCCc2cccc3ccc(O)cc23)C1 |
| 600 | 352 | 340 | 2 |  |  | CC1(C)CCCN(CCCc2cccc3cc(O)ccc23)C1 |
| 8.27 | 42.4 | 0.9 | 9 |  |  | COc1ccc2cccc(CCCN3CCN(C4CCCCC4)CC3)c2c1 |
| 117 | 24 | 138 | 0.8 |  |  | CC1(C)CCCN(CCCCCn2c3ccccc3c3ccccc32)C1 |
| 11.8 | 55 | 5.48 | 2 |  |  | Oc1ccc2cccc(CCCN3CCN(C4CCCCC4)CC3)c2c1 |
| 30.8 |  |  |  |  |  | Cc1ccccc1NC(=N)Nc1ccccc1C [DITOLYLGUANIDINE] |
| 9.02 | 7.06 | 3.16 | 3 |  |  | COc1ccc2c(CCCN3CCN(C4CCCCC4)CC3)cccc2c1 |
